ChEMBL document CHEMBL4507303, “Data for DCP probe TP-004” (2021)

What was measured:
[1] = system: Tyrosine-protein kinase ABL1 (Homo sapiens), P00519 [T315I]; details: Compound concentration 1000.0 nM
[2] = biological target: Activin receptor type-1 (Homo sapiens) (UniProt Q04771); details: Compound concentration 1000.0 nM
[3] = biological target: RAC-alpha serine/threonine-protein kinase (Homo sapiens) (UniProt P31749); details: Compound concentration 1000.0 nM
[4] = biological target: Mitogen-activated protein kinase kinase kinase 5 (Homo sapiens) (UniProt Q99683); details: Compound concentration 1000.0 nM
[5] = biological target: Aurora kinase B (Homo sapiens) (UniProt Q96GD4); details: Compound concentration 1000.0 nM
[6] = biological target: Bone morphogenetic protein receptor type-2 (Homo sapiens) (UniProt Q13873); details: Compound concentration 1000.0 nM
[7] = biological target: Calcium/calmodulin-dependent protein kinase type 1 (Homo sapiens) (UniProt Q14012); details: Compound concentration 1000.0 nM
[8] = biological target: Calcium/calmodulin-dependent protein kinase type 1B (Homo sapiens) (UniProt Q6P2M8); details: Compound concentration 1000.0 nM
Chain of Calcium/calmodulin-dependent protein kinase type 1B (Homo sapiens) (Q6P2M8 whole entry, canonical isoform): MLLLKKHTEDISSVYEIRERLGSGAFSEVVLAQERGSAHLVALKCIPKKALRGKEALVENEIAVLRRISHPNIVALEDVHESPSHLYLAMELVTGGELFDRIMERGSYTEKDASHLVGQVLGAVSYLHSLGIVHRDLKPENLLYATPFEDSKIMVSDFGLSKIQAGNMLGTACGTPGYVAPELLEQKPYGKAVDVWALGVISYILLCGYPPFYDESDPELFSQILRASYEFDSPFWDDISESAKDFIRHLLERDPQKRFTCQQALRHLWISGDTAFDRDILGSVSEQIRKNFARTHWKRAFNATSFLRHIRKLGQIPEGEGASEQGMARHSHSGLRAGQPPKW

[9] = biological target: Casein kinase I isoform epsilon (Homo sapiens) (UniProt P49674); details: Compound concentration 1000.0 nM
[10] = biological target: Death-associated protein kinase 1 (Homo sapiens) (UniProt P53355); details: Compound concentration 1000.0 nM
[11] = biological target: Death-associated protein kinase 2 (Homo sapiens) (UniProt Q9UIK4); details: Compound concentration 1000.0 nM
[12] = biological target: Serine/threonine-protein kinase DCLK2 (Homo sapiens) (UniProt Q8N568); details: Compound concentration 1000.0 nM
[13] = biological target: Serine/threonine-protein kinase DCLK3 (Homo sapiens) (UniProt Q9C098); details: Compound concentration 1000.0 nM
[14] = biological target: Dual specificity tyrosine-phosphorylation-regulated kinase 2 (Homo sapiens) (UniProt Q92630); details: Compound concentration 1000.0 nM
[15] = biological target: Ephrin type-A receptor 6 (Homo sapiens) (UniProt Q9UF33); details: Compound concentration 1000.0 nM
[16] = biological target: Ephrin type-A receptor 8 (Homo sapiens) (UniProt P29322); details: Compound concentration 1000.0 nM
[17] = biological target: Receptor tyrosine-protein kinase erbB-2 (Homo sapiens) (UniProt P04626); details: Compound concentration 1000.0 nM
[18] = biological target: Receptor tyrosine-protein kinase erbB-4 (Homo sapiens) (UniProt Q15303); details: Compound concentration 1000.0 nM
[19] = biological target: Mitogen-activated protein kinase 1 (Homo sapiens) (UniProt P28482); details: Compound concentration 1000.0 nM
Chain of Mitogen-activated protein kinase 1 (Homo sapiens) (P28482 whole entry): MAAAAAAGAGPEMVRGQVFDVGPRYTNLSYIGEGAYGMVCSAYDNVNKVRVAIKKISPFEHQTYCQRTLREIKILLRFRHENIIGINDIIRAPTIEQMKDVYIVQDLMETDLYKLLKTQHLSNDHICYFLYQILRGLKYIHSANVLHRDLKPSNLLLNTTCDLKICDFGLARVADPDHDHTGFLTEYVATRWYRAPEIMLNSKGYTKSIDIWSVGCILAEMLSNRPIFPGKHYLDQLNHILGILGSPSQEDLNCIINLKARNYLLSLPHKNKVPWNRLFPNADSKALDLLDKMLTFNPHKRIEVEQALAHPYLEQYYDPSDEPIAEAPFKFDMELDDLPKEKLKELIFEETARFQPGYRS

[20] = system: Fibroblast growth factor receptor 3 (Homo sapiens), P22607 [G697C]; details: Compound concentration 1000.0 nM
[21] = biological target: Fibroblast growth factor receptor 4 (Homo sapiens) (UniProt P22455); details: Compound concentration 1000.0 nM
[22] = biological target: Tyrosine-protein kinase Fgr (Homo sapiens) (UniProt P09769); details: Compound concentration 1000.0 nM
[23] = system: Receptor-type tyrosine-protein kinase FLT3 (Homo sapiens), P36888 [UNDEFINED MUTATION]; details: Compound concentration 1000.0 nM
[24] = system: eIF-2-alpha kinase GCN2 (Homo sapiens), Q9P2K8 [S808G]; details: Compound concentration 1000.0 nM
Chain of eIF-2-alpha kinase GCN2 (Homo sapiens), Q9P2K8 [S808G] (Q9P2K8 whole entry S808G): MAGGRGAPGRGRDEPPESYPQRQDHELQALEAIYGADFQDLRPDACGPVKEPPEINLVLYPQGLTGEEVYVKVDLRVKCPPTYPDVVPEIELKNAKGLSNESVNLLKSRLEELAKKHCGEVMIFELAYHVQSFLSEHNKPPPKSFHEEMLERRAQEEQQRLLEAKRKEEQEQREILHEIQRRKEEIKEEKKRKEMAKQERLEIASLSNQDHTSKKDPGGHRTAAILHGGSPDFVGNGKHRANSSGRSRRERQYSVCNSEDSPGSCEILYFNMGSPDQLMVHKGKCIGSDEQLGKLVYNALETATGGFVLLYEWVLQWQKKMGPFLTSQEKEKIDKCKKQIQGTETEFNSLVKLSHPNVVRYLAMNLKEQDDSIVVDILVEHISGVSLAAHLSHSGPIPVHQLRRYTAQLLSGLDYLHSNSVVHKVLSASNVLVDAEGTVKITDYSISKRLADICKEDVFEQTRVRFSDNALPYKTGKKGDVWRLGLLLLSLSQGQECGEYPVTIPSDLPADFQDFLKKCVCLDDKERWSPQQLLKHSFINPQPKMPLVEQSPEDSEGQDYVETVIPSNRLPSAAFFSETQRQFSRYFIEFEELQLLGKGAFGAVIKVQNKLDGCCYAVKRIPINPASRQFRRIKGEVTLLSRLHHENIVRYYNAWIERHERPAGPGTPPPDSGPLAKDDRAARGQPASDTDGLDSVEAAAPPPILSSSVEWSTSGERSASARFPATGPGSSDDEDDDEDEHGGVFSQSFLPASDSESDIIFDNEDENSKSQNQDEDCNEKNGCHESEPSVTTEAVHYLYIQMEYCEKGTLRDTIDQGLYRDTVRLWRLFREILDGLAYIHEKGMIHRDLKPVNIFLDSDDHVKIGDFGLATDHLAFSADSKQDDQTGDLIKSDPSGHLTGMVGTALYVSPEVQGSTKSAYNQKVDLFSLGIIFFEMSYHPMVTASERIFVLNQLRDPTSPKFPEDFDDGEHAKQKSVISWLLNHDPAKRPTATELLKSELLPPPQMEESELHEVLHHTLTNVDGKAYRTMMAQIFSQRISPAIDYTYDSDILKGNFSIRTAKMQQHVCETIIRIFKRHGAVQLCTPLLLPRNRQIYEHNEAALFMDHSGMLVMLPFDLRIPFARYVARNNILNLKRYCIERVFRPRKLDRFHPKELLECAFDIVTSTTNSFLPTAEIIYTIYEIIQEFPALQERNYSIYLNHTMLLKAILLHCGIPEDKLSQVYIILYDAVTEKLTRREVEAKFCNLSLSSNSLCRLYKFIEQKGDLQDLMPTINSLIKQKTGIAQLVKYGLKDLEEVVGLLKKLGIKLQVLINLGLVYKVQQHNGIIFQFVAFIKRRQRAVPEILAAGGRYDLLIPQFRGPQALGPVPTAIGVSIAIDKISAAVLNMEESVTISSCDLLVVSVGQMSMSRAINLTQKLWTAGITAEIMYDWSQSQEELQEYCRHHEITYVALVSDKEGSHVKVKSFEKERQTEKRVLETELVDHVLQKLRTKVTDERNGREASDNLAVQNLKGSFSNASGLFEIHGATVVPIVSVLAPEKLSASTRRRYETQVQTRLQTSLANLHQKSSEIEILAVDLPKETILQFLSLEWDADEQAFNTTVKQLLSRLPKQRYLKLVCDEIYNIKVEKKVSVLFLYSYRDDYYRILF

[25] = biological target: Mitogen-activated protein kinase 8 (Homo sapiens) (UniProt P45983); details: Compound concentration 1000.0 nM
Chain of Mitogen-activated protein kinase 8 (Homo sapiens) (P45983 whole entry): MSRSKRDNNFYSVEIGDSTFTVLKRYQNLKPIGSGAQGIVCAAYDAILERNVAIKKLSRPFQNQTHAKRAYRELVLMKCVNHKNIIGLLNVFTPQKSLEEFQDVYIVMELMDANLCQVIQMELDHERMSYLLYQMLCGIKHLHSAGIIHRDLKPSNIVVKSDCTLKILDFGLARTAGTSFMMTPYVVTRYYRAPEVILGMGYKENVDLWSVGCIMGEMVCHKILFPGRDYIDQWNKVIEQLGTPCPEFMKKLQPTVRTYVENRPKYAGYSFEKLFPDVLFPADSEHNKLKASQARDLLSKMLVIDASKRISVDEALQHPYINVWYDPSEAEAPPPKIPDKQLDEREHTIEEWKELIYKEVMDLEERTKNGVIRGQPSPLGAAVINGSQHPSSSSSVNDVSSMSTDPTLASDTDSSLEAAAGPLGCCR

[26] = system: Mast/stem cell growth factor receptor Kit (Homo sapiens), P10721 [D816V]; details: Compound concentration 1000.0 nM
[27] = biological target: Tyrosine-protein kinase Lyn (Homo sapiens) (UniProt P07948); details: Compound concentration 1000.0 nM
[28] = biological target: Mitogen-activated protein kinase kinase kinase kinase 3 (Homo sapiens) (UniProt Q8IVH8); details: Compound concentration 1000.0 nM
[29] = biological target: Mitogen-activated protein kinase kinase kinase kinase 5 (Homo sapiens) (UniProt Q9Y4K4); details: Compound concentration 1000.0 nM
[30] = biological target: Maternal embryonic leucine zipper kinase (Homo sapiens) (UniProt Q14680); details: Compound concentration 1000.0 nM
[31] = biological target: Serine/threonine-protein kinase 4 (Homo sapiens) (UniProt Q13043); details: Compound concentration 1000.0 nM
[32] = biological target: Serine/threonine-protein kinase Nek11 (Homo sapiens) (UniProt Q8NG66); details: Compound concentration 1000.0 nM
[33] = biological target: Cyclin-dependent kinase 2 homolog (Plasmodium falciparum (isolate 3D7)) (UniProt P61075); details: Compound concentration 1000.0 nM
Chain of Cyclin-dependent kinase 2 homolog (Plasmodium falciparum (isolate 3D7)) (P61075 whole entry, canonical isoform): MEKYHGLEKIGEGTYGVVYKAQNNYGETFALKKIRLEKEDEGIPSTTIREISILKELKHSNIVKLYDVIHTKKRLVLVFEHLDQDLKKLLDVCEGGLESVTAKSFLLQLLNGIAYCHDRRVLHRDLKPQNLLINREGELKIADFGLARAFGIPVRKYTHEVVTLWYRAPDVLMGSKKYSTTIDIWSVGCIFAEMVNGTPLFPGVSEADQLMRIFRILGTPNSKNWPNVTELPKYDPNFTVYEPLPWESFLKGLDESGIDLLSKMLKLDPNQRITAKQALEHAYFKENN

[34] = biological target: Phosphorylase b kinase gamma catalytic chain, skeletal muscle/heart isoform (Homo sapiens) (UniProt Q16816); details: Compound concentration 1000.0 nM
[35] = biological target: Phosphatidylinositol 4,5-bisphosphate 3-kinase catalytic subunit gamma isoform (Homo sapiens) (UniProt P48736); details: Compound concentration 1000.0 nM
[36] = biological target: cAMP-dependent protein kinase catalytic subunit PRKX (Homo sapiens) (UniProt P51817); details: Compound concentration 1000.0 nM
Chain of cAMP-dependent protein kinase catalytic subunit PRKX (Homo sapiens) (P51817 whole entry): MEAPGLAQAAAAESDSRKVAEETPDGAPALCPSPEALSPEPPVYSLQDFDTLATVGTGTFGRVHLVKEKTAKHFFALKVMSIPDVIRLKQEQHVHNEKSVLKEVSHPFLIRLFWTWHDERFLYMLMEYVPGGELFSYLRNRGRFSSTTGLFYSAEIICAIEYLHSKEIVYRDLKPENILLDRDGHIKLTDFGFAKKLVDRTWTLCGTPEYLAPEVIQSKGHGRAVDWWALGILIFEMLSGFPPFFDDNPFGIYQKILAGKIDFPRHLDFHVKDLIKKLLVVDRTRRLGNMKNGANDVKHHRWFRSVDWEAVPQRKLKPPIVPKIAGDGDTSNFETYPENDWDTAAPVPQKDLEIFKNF

[37] = biological target: Receptor-interacting serine/threonine-protein kinase 4 (Homo sapiens) (UniProt P57078); details: Compound concentration 1000.0 nM
[38] = biological target: Ribosomal protein S6 kinase alpha-2 (Homo sapiens) (UniProt Q15349); details: Compound concentration 1000.0 nM
[39] = biological target: Mitogen-activated protein kinase kinase kinase 7 (Homo sapiens) (UniProt O43318); details: Compound concentration 1000.0 nM
[40] = biological target: Serine/threonine-protein kinase WNK1 (Homo sapiens) (UniProt Q9H4A3); details: Compound concentration 1000.0 nM
[41] = biological target: Serine/threonine-protein kinase WNK4 (Homo sapiens) (UniProt Q96J92); details: Compound concentration 1000.0 nM
Chain of Serine/threonine-protein kinase WNK4 (Homo sapiens) (Q96J92 whole entry): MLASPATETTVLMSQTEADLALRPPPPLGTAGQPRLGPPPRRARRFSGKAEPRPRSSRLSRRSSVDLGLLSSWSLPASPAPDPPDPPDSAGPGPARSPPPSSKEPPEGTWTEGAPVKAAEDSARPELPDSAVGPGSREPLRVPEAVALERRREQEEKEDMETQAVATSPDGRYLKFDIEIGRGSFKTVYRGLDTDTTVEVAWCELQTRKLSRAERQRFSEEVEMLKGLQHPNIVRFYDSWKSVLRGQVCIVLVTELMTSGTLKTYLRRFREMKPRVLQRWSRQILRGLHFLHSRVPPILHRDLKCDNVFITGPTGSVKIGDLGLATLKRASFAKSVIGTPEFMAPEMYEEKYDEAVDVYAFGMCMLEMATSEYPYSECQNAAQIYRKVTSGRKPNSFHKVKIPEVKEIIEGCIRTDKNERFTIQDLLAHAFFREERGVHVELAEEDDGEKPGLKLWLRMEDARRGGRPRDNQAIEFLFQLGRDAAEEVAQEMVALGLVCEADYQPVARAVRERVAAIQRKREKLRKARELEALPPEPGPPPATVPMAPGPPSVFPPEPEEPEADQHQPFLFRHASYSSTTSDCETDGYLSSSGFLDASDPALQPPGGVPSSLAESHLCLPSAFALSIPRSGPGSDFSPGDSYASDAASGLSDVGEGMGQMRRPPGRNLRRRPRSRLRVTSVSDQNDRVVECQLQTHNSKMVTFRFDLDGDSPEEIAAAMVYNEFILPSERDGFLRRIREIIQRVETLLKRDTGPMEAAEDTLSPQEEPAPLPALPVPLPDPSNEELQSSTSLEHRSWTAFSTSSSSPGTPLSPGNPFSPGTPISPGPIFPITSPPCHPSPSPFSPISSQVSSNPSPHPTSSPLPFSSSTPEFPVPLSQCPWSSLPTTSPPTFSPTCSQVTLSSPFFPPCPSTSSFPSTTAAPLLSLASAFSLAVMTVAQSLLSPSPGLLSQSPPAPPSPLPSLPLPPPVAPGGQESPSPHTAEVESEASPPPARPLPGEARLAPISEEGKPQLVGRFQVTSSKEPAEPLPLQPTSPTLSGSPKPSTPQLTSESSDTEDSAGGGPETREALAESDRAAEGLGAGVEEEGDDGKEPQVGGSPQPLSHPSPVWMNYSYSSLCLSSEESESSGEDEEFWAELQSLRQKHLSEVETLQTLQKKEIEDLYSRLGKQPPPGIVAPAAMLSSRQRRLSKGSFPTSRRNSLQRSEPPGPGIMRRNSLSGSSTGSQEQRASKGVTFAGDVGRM

[42] = biological target: 5-hydroxytryptamine receptor 1E (Homo sapiens) (UniProt P28566); details: Compound concentration 10.0 uM
Chain of 5-hydroxytryptamine receptor 1E (Homo sapiens) (P28566 whole entry): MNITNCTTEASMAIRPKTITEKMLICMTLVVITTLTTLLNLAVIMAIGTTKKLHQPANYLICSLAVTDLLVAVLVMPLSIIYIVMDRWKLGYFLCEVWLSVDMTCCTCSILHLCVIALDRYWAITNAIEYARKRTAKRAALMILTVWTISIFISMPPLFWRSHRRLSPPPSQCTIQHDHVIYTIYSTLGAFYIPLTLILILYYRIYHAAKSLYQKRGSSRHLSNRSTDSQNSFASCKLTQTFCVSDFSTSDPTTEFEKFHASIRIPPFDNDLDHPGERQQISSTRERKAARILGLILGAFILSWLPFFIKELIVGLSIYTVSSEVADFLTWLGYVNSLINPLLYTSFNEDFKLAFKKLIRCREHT

[43] = biological target: D(4) dopamine receptor (Homo sapiens) (UniProt P21917); details: Compound concentration 10.0 uM
[44] = biological target: Sodium-dependent serotonin transporter (Homo sapiens) (UniProt P31645); details: Compound concentration 10.0 uM
[45] = biological target: Alpha-2C adrenergic receptor (Homo sapiens) (UniProt P18825); details: Compound concentration 10.0 uM

Cc1nc(N2CC[C@@H](O)C2)ncc1-c1cc(C(F)(F)F)cc2[nH]ncc12 [TP-004]
inactive: residual activity [1] 69% | residual activity [2] 80% | residual activity [3] 100% | residual activity [4] 100% | residual activity [5] 100% | residual activity [6] 81% | residual activity [7] 100% | residual activity [8] 90% | residual activity [9] 79% | residual activity [10] 89% | residual activity [11] 100% | residual activity [12] 100% | residual activity [13] 96% | residual activity [14] 79% | residual activity [15] 100% | residual activity [16] 61% | residual activity [17] 87% | residual activity [18] 87% | residual activity [19] 100% | residual activity [20] 90% | residual activity [21] 90% | residual activity [22] 100% | residual activity [23] 100% | residual activity [24] 76% | residual activity [25] 100% | residual activity [26] 100% | residual activity [27] 100% | residual activity [28] 100% | residual activity [29] 75% | residual activity [30] 100% | residual activity [31] 83% | residual activity [32] 87% | residual activity [33] 61% | residual activity [34] 81% | residual activity [35] 82% | residual activity [36] 97% | residual activity [37] 60% | residual activity [38] 100% | residual activity [39] 89% | residual activity [40] 71% | residual activity [41] 95% | inhibition [42] -5.65% | inhibition [43] 7.69% | inhibition [44] -6.93% | inhibition [45] 2.18%
